Biological target: T1, human TRPM5 ion channel (Homo sapiens, UniProt Q9NZQ8)
T1 sequence (Q9NZQ8 1-1165): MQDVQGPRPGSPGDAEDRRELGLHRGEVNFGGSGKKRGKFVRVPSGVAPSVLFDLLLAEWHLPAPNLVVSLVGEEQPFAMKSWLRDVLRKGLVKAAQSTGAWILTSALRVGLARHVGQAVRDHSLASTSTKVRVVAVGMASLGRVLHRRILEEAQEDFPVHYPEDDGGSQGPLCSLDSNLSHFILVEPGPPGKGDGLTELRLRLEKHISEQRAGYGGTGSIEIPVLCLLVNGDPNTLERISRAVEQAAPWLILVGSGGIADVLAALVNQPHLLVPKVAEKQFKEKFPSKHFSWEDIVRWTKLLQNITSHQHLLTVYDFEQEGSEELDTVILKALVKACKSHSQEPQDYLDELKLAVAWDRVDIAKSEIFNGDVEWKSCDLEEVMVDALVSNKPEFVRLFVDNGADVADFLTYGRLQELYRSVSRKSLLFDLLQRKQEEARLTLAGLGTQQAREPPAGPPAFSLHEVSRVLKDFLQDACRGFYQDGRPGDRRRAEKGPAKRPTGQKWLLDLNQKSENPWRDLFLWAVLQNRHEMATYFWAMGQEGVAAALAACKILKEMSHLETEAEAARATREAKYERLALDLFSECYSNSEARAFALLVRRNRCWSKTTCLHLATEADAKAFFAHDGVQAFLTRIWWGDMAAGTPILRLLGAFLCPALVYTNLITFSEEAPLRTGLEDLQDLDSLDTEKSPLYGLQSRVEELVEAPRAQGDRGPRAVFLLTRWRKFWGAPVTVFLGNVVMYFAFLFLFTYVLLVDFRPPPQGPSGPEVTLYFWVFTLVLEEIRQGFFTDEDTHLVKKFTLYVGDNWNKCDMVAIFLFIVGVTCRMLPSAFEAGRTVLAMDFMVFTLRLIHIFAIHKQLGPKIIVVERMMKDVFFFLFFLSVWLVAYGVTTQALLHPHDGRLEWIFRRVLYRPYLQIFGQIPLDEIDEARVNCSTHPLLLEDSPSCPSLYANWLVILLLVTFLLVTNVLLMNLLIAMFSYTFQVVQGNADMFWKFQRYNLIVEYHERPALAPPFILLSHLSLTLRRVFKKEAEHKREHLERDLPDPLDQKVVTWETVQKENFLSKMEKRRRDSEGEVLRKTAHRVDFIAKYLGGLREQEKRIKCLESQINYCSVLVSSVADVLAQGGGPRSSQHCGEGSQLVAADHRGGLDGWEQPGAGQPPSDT
Experiment: FLIPR-based assay for membrane potential and calcium mobilization (TRPM5 inhibiting activity)
Assay type: cell-based
Conditions: live cells, 30° C., read-out: hTrpM5 IC50
Summary of the method: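 Live cells expressing human TRPM5, assayed at 30 °C by FLIPR readout of membrane potential and calcium mobilization. Ten serial 2- or 3-fold dilutions from no more than 100 μM. IC50 derived by curve fitting of concentration-effect data.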

## Cc1cc(/C=N/NC(=O)C2CC2c2ccccc2)cc2cccnc12 (racemic) [Example 10, trans-N′-((8-Methylquinolin-6-yl)methylene)-2-phenylcyclopropanecarbohydrazide]
  IC50: 420 nM

Reference: patent publication US20110033393A1, “Hydrazone Compounds and Their Use” (priority 2009, published 2011)
